Target: T1, SIRT1 (Homo sapiens, UniProt Q96EB6)
T1 sequence (Q96EB6 1-747): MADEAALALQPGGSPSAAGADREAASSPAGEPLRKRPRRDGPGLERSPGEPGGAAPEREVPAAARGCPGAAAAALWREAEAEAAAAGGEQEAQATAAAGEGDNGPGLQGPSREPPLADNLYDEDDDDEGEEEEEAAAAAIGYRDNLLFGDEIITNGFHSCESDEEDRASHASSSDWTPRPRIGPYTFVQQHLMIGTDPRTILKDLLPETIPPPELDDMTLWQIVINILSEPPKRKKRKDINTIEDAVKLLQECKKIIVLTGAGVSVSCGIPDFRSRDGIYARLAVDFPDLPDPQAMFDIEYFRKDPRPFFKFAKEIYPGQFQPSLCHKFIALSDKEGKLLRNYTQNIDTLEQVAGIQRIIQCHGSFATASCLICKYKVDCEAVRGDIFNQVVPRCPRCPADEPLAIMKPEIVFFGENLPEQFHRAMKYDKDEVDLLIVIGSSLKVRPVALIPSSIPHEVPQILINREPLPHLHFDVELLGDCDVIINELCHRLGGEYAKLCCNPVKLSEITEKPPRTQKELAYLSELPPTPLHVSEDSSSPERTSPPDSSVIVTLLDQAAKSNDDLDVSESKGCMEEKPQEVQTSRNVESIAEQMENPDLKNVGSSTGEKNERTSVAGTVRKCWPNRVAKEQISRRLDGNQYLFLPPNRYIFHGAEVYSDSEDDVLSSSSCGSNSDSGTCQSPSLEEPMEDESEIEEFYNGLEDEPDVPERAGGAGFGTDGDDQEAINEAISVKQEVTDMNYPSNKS
Assay: Mass spectrometry based assay to identify modulators of SIRT1 activity (deacetylation of p53-based acetylated peptide substrate)
Type: biochemical
Conditions: 10 nM SIRT1, 0.5 μM peptide substrate, 120 μM βNAD+, 25 minutes at 25° C.
From the text: A mass spectrometry based assay was used to identify modulators of SIRT1 activity. The mass spectrometry based assay utilizes a peptide having 20 amino acid residues as follows: Ac-EE-K(biotin)-GQSTSSHSK(Ac)NleSTEG-K(5TMR)-EE-NH2 (SEQ ID NO: 1) wherein K(Ac) is an acetylated lysine residue and Nle is a norleucine. The peptide is labeled with the fluorophore 5TMR (excitation 540 nm/emission 580 nm) at the C-terminus. The sequence of the peptide substrate is based on p53 with several modifications. In addition, the methionine residue naturally present in the sequence was replaced with the norleucine because the methionine may be susceptible to oxidation during synthesis and purification.
The mass spectrometry assay is conducted as follows: 0.5 μM peptide substrate and 120 μM βNAD^+ is incubated with 10 nM SIRT1 for 25 minutes at 25° C. in a reaction buffer (50 mM Tris-acetate pH 8, 137 mM NaCl, 2.7 mM KCl, 1 mM MgCl2, 5 mM DTT, 0.05% BSA). Test compounds may be added to the reaction as described above. The SirT1 gene is cloned into a T7-promoter containing vector and transformed into BL21(DE3). After the 25 minute incubation with SIRT1, 10 μL of 10% formic acid is added to stop the reaction. Reactions are sealed and frozen for later mass spec analysis. Determination of the mass of the substrate peptide allows for precise determination of the degree of acetylation (i.e. starting material) as compared to deacetylated peptide (product).
A control for inhibition of sirtuin activity is conducted by adding 1 μL of 500 mM nicotinamide as a negative control at the start of the reaction (e.g., permits determination of maximum sirtuin inhibition). A control for activation of sirtuin activity is conducted using 10 nM of sirtuin protein, with 1 μL of DMSO in place of compound, to determine the amount of deacetylation of the substrate at a given timepoint within the linear range of the assay. This timepoint is the same as that used for test compounds and, within the linear range, the endpoint represents a change in velocity.
For the above assay, SIRT1 protein was expressed and purified as follows. The SirT1 gene was cloned into a T7-promoter containing vector and transformed into BL21(DE3). The protein was expressed by induction with 1 mM IPTG as an N-terminal His-tag fusion protein at 18° C. overnight and harvested at 30,000×g. Cells were lysed with lysozyme in lysis buffer (50 mM Tris-HCl, 2 mM Tris[2-carboxyethyl]phosphine (TCEP), 10 μM ZnCl2, 200 mM NaCl) and further treated with sonication for 10 min for complete lysis. The protein was purified over a Ni-NTA column (Amersham) and fractions containing pure protein were pooled, concentrated and run over a sizing column (Sephadex S200 26/60 global). The peak containing soluble protein was collected and run on an Ion-exchange column (MonoQ). Gradient elution (200 mM-500 mM NaCl) yielded pure protein. This protein was concentrated and dialyzed against dialysis buffer (20 mM Tris-HCl, 2 mM TCEP) overnight. The protein was aliquoted and frozen at −80° C. until further use.
Sirtuin modulating compounds that activated SIRT1 were identified using the assay described above and are shown below in Table 1. The EC1-5 values for the activating compounds are represented by A′ (EC1.5<250 nM), A (EC1.5≧250 nM and ≦1 uM), B (EC1.5>1 and ≦10 uM), or C (EC1.5>10 uM). The percent maximum fold activation is represented by A (Fold activation≧300%), B (Fold Activation≧150% and <300%), or C (Fold Activation<150%).

With `O=C(Nc1ccccc1-c1nc2ccncc2s1)c1cc(NCc2ccncc2)nc(-c2ccccc2)n1` [Compound 32] as the molecule, how does the “FOLD ACT. (percent maximum fold activation)” value read?
The value was “A (Fold activation≧300%)”.

`CN(C)CCNCCOc1cc(C(=O)Nc2ccccc2-c2nc3cccnc3s2)nc(-c2ccccc2)c1` [Compound 33] was tested. Which “FOLD ACT. (percent maximum fold activation)” value did it give?
Its value is “A (Fold activation≧300%)”.

How did the “FOLD ACT. (percent maximum fold activation)” value turn out when `O=C(Nc1ccccc1-c1nc2cccnc2s1)c1cc(O)cc(-c2ccccc2)n1` [Compound 34] was run?
Its value is “A (Fold activation≧300%)”.

Which “FOLD ACT. (percent maximum fold activation)” value does the source give for `C[C@@H]1CN(c2cc(C(=O)Nc3ccccc3-c3nc4cccnc4s3)nc(-c3ccccc3)n2)C[C@H](C)N1` [Compound 35] here?
Its value is “A (Fold activation≧300%)”.

With `C[C@@H]1CN(CCOc2cc(C(=O)Nc3ccccc3-c3nc4cccnc4s3)nc(-c3ccccc3)c2)C[C@H](C)O1` [Compound 36] as the molecule, how does the “FOLD ACT. (percent maximum fold activation)” value read?
Its value is “A (Fold activation≧300%)”.

Which “FOLD ACT. (percent maximum fold activation)” value does the source give for `O=C(Nc1ccccc1-c1nc2cccnc2s1)c1cc(N2CCCNCC2)nc(-c2ccccc2)n1` [Compound 37] here?
Its value is “A (Fold activation≧300%)”.

How did the “FOLD ACT. (percent maximum fold activation)” value turn out when `CN(C)c1cc(C(=O)Nc2ccccc2-c2nc3cccnc3s2)nc(-c2ccccc2)n1` [Compound 38] was run?
Its value is “B (Fold Activation≧150% and <300%)”.

With `O=C(Nc1ccccc1-c1nc2cccnc2s1)c1cc(NCCO)nc(-c2ccccc2)n1` [Compound 39] as the molecule, how does the “FOLD ACT. (percent maximum fold activation)” value read?
Its value is “A (Fold activation≧300%)”.

Which “FOLD ACT. (percent maximum fold activation)” value does the source give for `O=C(Nc1ccccc1-c1nc2cccnc2s1)c1cc(NCCCO)nc(-c2ccccc2)n1` [Compound 40] here?
The value was “A (Fold activation≧300%)”.

How did the “FOLD ACT. (percent maximum fold activation)” value turn out when `CCN(CC)CCNc1cc(C(=O)Nc2ccccc2-c2nc3cccnc3s2)nc(-c2ccccc2)n1` [Compound 41] was run?
The value was “A (Fold activation≧300%)”.

With `CCCCNc1cc(C(=O)Nc2ccccc2-c2nc3cccnc3s2)nc(-c2ccccc2)n1` [Compound 42] as the molecule, how does the “FOLD ACT. (percent maximum fold activation)” value read?
The value was “C (Fold Activation<150%)”.

`CCOC(=O)CCNc1cc(C(=O)Nc2ccccc2-c2nc3cccnc3s2)nc(-c2ccccc2)n1` [Compound 43] was tested. Which “FOLD ACT. (percent maximum fold activation)” value did it give?
The value was “B (Fold Activation≧150% and <300%)”.

With `O=C(O)CCNc1cc(C(=O)Nc2ccccc2-c2nc3cccnc3s2)nc(-c2ccccc2)n1` [Compound 44] as the molecule, how does the “FOLD ACT. (percent maximum fold activation)” value read?
The value was “A (Fold activation≧300%)”.

For `CSCCNc1cc(C(=O)Nc2ccccc2-c2nc3cccnc3s2)nc(-c2ccccc2)n1` [Compound 45], which “FOLD ACT. (percent maximum fold activation)” value is on record?
The value was “B (Fold Activation≧150% and <300%)”.

With `CS(=O)(=O)CCNc1cc(C(=O)Nc2ccccc2-c2nc3cccnc3s2)nc(-c2ccccc2)n1` [Compound 46] as the molecule, how does the “FOLD ACT. (percent maximum fold activation)” value read?
Its value is “A (Fold activation≧300%)”.

Same assay, conditions: SIRT1 activation; 10 nM SIRT1, 0.5 μM peptide substrate, 120 μM βNAD+, 25 minutes at 25° C.

`O=C(Nc1ccccc1-c1nc2ccncc2s1)c1cc(NCc2ccncc2)nc(-c2ccccc2)n1` [Compound 32] was tested. Which EC1.5 did it give?
The EC1.5 was “A (EC1.5≧250 nM and ≦1 uM)”.

With `CN(C)CCNCCOc1cc(C(=O)Nc2ccccc2-c2nc3cccnc3s2)nc(-c2ccccc2)c1` [Compound 33] as the molecule, how does the EC1.5 read?
The EC1.5 was “A′ (EC1.5<250 nM)”.

For `O=C(Nc1ccccc1-c1nc2cccnc2s1)c1cc(O)cc(-c2ccccc2)n1` [Compound 34], which EC1.5 is on record?
The EC1.5 was “A (EC1.5≧250 nM and ≦1 uM)”.

Which EC1.5 does the source give for `C[C@@H]1CN(c2cc(C(=O)Nc3ccccc3-c3nc4cccnc4s3)nc(-c3ccccc3)n2)C[C@H](C)N1` [Compound 35] here?
Its EC1.5 is “A′ (EC1.5<250 nM)”.

For `C[C@@H]1CN(CCOc2cc(C(=O)Nc3ccccc3-c3nc4cccnc4s3)nc(-c3ccccc3)c2)C[C@H](C)O1` [Compound 36], which EC1.5 is on record?
Its EC1.5 is “A′ (EC1.5<250 nM)”.

How did the EC1.5 turn out when `O=C(Nc1ccccc1-c1nc2cccnc2s1)c1cc(N2CCCNCC2)nc(-c2ccccc2)n1` [Compound 37] was run?
Its EC1.5 is “A′ (EC1.5<250 nM)”.

Which EC1.5 does the source give for `CN(C)c1cc(C(=O)Nc2ccccc2-c2nc3cccnc3s2)nc(-c2ccccc2)n1` [Compound 38] here?
Its EC1.5 is “B (EC1.5>1 and ≦10 uM)”.

`O=C(Nc1ccccc1-c1nc2cccnc2s1)c1cc(NCCO)nc(-c2ccccc2)n1` [Compound 39] was tested. Which EC1.5 did it give?
Its EC1.5 is “A′ (EC1.5<250 nM)”.

`O=C(Nc1ccccc1-c1nc2cccnc2s1)c1cc(NCCCO)nc(-c2ccccc2)n1` [Compound 40] was tested. Which EC1.5 did it give?
The EC1.5 was “A′ (EC1.5<250 nM)”.

For `CCN(CC)CCNc1cc(C(=O)Nc2ccccc2-c2nc3cccnc3s2)nc(-c2ccccc2)n1` [Compound 41], which EC1.5 is on record?
Its EC1.5 is “A′ (EC1.5<250 nM)”.

Which EC1.5 does the source give for `CCCCNc1cc(C(=O)Nc2ccccc2-c2nc3cccnc3s2)nc(-c2ccccc2)n1` [Compound 42] here?
The EC1.5 was “C (EC1.5>10 uM)”.

Which EC1.5 does the source give for `CCOC(=O)CCNc1cc(C(=O)Nc2ccccc2-c2nc3cccnc3s2)nc(-c2ccccc2)n1` [Compound 43] here?
The EC1.5 was “A (EC1.5≧250 nM and ≦1 uM)”.

With `O=C(O)CCNc1cc(C(=O)Nc2ccccc2-c2nc3cccnc3s2)nc(-c2ccccc2)n1` [Compound 44] as the molecule, how does the EC1.5 read?
Its EC1.5 is “A (EC1.5≧250 nM and ≦1 uM)”.

How did the EC1.5 turn out when `CSCCNc1cc(C(=O)Nc2ccccc2-c2nc3cccnc3s2)nc(-c2ccccc2)n1` [Compound 45] was run?
Its EC1.5 is “B (EC1.5>1 and ≦10 uM)”.

For `CS(=O)(=O)CCNc1cc(C(=O)Nc2ccccc2-c2nc3cccnc3s2)nc(-c2ccccc2)n1` [Compound 46], which EC1.5 is on record?
The EC1.5 was “A′ (EC1.5<250 nM)”.
